Results taken from publication PMC4838890, “Dynamic and flexible H3K9me3 bridging via HP1β dimerization establishes a plastic state of condensed chromatin” (Nature Communications, 2016).
Entries after “also recorded” stand apart in the source; their conditions may differ.

Tests used:
[1] = system: H3K9me0 and H3K9me3 chromatin; conditions: cited from earlier work
Description: In our model, modulation of the general chromatin-binding mode is brought about by varying sequences in the HR and NT domains as well as possibly their post-translational modification in other HP1 proteins (different variants, different species). We think that within these regions the overall charge but not a particular sequence is mainly dictating the chromatin-binding properties.

DNA fragment of 150 bp = experiment: Electrophoretic mobility shift assay (EMSA); type: binding; conditions: 150 bp DNA, 0, 3, 9 μM protein, 100 mM NaCl, 5 mM MgCl2, RT
Protocol: 50 ng 150 bp DNA amplified from the backbone of pUC18 was incubated with 0, 3, 9 μM recombinant protein in 10 μl EMSA buffer (10 mM Tris-HCl (pH 8.0), 100 mM NaCl, 5 mM MgCl2) for 20 min at room temperature (RT). 2 μl 50% (v/v) glycerol was added and samples were loaded onto 6% native PAGE gels. After electrophoresis, DNA was visualized by staining with 1 × SYBR Gold/0.25 × TBE for 20 min at RT. Images were captured using a ChemiDoc MP Imaging System (Bio-Rad, München, Germany). […]
crosslinking Fig. S6e,f nucleosomes […]
crosslinking Fig. S7a,b nucleosomes
EMSA Fig. 1g; Fig. 5c; n//a RT 100 5
1Preincubation of oligonucleosomes and h HP1β was performed at 4 °C . Measurements wer e carried out at the in dicated te mperature.
2in increments o f 0 .5 mM
3MgCl2 was added at the end of incubation to coprecipitate oligonucleosomes a nd bound hHP1β.

H3K9me3 oligonucleosomes = experiment: Chromatin coprecipitation, H3K9me3 oligonucleosomes; type: binding, Xenopus laevis; conditions: chromatin coprecipitation, 5 mM MgCl2
Protocol: (§1) 6.7 nM oligonucleosomes were incubated with 1 μM recombinant protein in 100 μl binding buffer (10 mM triethanolamine (pH 7.5), 150 mM NaCl, 5 mM MgCl2, 0.1 mM EDTA, 0.1% (v/v) Triton-X100) for 1 h on ice. Precipitated chromatin complexes were recovered by centrifugation at 16,100g for 30 min at 4°C. Pellets were washed once with 0.5 ml binding buffer and centrifuged for 15 min at 4 °C. Precipitated material was resuspended in 10 μl 1 × SDS loading buffer and boiled for 5 min before running on SDS–PAGE.
(§2) Supplementary Table 1: Summary of conditions used in the different experiments of this study.
(§3) experiment result modification template Temp. [NaCl] [MgCl2]
(§4) chromatin Fig. 1e,f; Fig. S1f-h; H3K9me3 oligo- 4 150 5

[2] = system: H3KC9me3 oligonucleosomes; experiment: Chromatin coprecipitation, H3KC9me3 oligonucleosomes; type: binding, Xenopus laevis
Protocol: as §1, §2, §3, §4

[3] = system: mouse embryonic stem cells (mESC); experiment: ChIP-seq genome-wide correlation with H3K9me3; type: cell-based
Protocol: For crosslink MNase ChIP of HP1β, 10^7 TT2 WT mouse ES cells were collected. Cells were crosslinked with 1% (v/v) formaldehyde in 10 ml of PBS for 10 min at RT, then quenched with 0.125 M glycine for 5 min. Cells were washed 1 × with PBS, and resuspended in 1 ml of EZ Nuclei Isolation Buffer (Sigma-Aldrich, Steinheim, Germany). The cytoplasmic supernatant was discarded and the pellet was flash frozen with liquid N2. […]
A third of ChIP and input DNA (10–20 ng total) underwent end repair with T4 and Klenow, A-tailing and adaptor ligation. […] Resulting PCR was then purified on 2% EX Gel (Life Technologies, Carlsbad, USA) at the 200–700 bp range, and quantified on Qubit and Agilent Tapestation. […]
Following published data sets were downloaded from NCBI/GEO for this study: SPR899601/ H3K9me3 SETDB1^f/− and SPR899602/H3K9me3 SETDB1^−/− both done with anti-H3K9me3 antibody (ab8898)[36]. Reads were processed and aligned to the mouse reference genome (mm9) using QuasR in R. Genomic alignment was performed twice using BOWTIE with the following parameters: --strata, --best and -m 1 or -m 99 to account for reads that map uniquely or up to 99 times in the mouse genome, respectively. For genome-wide comparisons, only uniquely mapping reads were used. Reads mapping up to 99 times were used for ERV analysis and genome browser visualization. […]

In the case of “hHP1α WT: recombinant human HP1α (GenBank BC006821) [reference compound]”, the “discrimination between H3K9me0 and H3K9me3 chromatin” value ([1]; ref [12]) is given as “limited discrimination between H3K9me0 and H3K9me3 chromatin”, the DNA binding (DNA fragment of 150 bp) is given as “high level of general DNA binding” and the “specificity for H3K9me3” value (H3K9me3 oligonucleosomes) is given as “much less specificity for H3K9me3 compared with hHP1β”.
In the case of Swi6: S. pombe HP1 protein, the “recovery with H3KC9me3 oligonucleosomes” value ([2]; 6.7 nM oligonucleosomes, 1 μM protein, 150 mM NaCl, 5 mM MgCl2) is given as “specificity of Swi6 association with H3K9me0 and H3K9me3 oligonucleosomes increased significantly when the chromatin was more saturated; also recorded: recovered to a higher degree in H3K9me3 chromatin coprecipitation compared with hHP1β”, the “molecules bound per nucleosome” value ([2]; saturating protein concentrations) is given as “approximately four” and the “binding to unmodified chromatin” value ([1]; ref [29]) is given as “more pronounced binding to unmodified chromatin”.
In the case of “mHP1β: endogenous mouse HP1β; sequence identical to human HP1β”, the “H3K9me3 loss on SETDB1 deletion at mHP1β-enriched sites” value ([3]; conditional SETDB1 deletion, H3K9me3 data ref [36]) is reported as “the strongest loss of H3K9me3 occurred at sites enriched for mHP1β in WT cells” and the “Pearson's R, genome-wide correlation with H3K9me3” value ([3]; endogenous mHP1β, antibody-based ChIP-seq, 1 kb windows) is reported as 0.77.
